# Test results reported in PMC6009956, “Design, synthesis and biological activity of N^4-phenylsubstituted-7H-pyrrolo[2,3-d]pyrimidin-4-amines as dual inhibitors of aurora kinase A and epidermal growth factor receptor kinase” (Journal of Enzyme Inhibition and Medicinal Chemistry, 2017).
# Like-named read-outs stand apart in the source and are kept apart here.
# Legend:
# [1] = target: T1, aurora A kinase (AURKA) (Homo sapiens, UniProt O14965); assay: ADP-Glo kinase assay, Aurora A; assay type: biochemical
# T1 construct: purchased BPS Bioscience (assay run externally by the vendor)
# T1 sequence (O14965 1-403): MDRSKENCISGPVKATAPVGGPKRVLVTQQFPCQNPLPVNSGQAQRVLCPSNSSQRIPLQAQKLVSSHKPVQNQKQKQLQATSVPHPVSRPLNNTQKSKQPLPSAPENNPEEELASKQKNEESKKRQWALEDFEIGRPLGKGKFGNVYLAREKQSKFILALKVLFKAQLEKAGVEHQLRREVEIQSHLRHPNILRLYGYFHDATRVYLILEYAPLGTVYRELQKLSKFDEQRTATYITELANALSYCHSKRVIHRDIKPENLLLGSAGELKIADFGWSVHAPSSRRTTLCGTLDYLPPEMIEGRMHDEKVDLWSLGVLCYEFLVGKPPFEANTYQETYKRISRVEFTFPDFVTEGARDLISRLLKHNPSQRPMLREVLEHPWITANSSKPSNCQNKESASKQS
# [2] = target: EGFR (Homo sapiens, UniProt P00533); assay: ADP-Glo kinase assay, EGFR; assay type: biochemical; set-up: purchased BPS Bioscience (assay run externally by the vendor)
# Chain of EGFR (P00533 25-1210): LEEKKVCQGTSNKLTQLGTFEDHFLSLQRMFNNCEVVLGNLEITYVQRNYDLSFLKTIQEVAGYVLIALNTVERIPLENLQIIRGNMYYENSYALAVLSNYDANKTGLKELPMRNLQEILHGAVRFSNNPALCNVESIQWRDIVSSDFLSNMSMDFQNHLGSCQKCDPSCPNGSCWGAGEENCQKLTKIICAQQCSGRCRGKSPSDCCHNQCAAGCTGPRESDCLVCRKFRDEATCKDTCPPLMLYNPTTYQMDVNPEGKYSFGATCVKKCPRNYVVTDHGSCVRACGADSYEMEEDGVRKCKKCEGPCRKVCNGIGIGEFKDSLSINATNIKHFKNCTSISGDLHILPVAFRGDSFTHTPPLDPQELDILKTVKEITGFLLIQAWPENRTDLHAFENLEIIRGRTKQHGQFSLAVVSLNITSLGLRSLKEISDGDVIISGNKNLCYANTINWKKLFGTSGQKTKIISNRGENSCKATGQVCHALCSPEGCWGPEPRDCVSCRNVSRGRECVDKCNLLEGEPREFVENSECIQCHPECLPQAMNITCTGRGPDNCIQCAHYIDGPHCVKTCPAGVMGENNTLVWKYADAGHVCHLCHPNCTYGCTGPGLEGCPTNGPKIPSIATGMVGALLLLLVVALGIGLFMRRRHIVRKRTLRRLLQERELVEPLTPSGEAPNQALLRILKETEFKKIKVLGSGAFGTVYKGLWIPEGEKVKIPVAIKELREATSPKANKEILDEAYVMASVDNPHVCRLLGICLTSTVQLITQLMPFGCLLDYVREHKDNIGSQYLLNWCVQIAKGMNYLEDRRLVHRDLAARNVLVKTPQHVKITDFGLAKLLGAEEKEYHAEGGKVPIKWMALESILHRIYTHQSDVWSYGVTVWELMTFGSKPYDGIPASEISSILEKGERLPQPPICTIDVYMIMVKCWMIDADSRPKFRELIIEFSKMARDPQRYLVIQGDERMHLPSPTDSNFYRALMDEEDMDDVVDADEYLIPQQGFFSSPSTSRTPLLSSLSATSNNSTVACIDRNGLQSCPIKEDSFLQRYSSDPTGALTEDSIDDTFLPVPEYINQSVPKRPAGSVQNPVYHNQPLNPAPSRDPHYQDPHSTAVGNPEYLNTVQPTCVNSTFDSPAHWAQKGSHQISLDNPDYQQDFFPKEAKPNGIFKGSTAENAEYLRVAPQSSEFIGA
# [3] = 10 µM ATP, triplicate, read-out: AURKA IC50 ± SD
# [4] = 10 µM ATP/0.2 mg/ml Kemptide, read-out: Aurora A IC50 (dose-response curve, supplement)
# [5] = 10 µM ATP, triplicate, read-out: EGFR IC50 ± SD
# [6] = 10 µM ATP/0.2 mg/ml Poly-Glu-Tyr, read-out: EGFR IC50 (dose-response curve, supplement)
structure (smiles),measurement,setting,value
"Fc1cc(Nc2ncnc3[nH]ccc23)ccc1Cl [Compound 3, N^4-(3-fluoro-4-chlorophenyl)-7H-pyrrolo[2,3-d]pyrimidine-4-amine]",IC50,[1]; [3],3.29 ± 0.15 µM
same,IC50,[1]; [4],3.3 µM
same,Aurora A % Activity Set1,[1]; Log[nM] 0,95%
same,Aurora A % Activity Set2,[1]; Log[nM] 0,93%
same,Aurora A % Activity Set3,[1]; Log[nM] 0,100%
same,Aurora A % Activity Set1,[1]; Log[nM] 1.0,99%
same,Aurora A % Activity Set2,[1]; Log[nM] 1.0,96%
same,Aurora A % Activity Set3,[1]; Log[nM] 1.0,101%
same,Aurora A % Activity Set1,[1]; Log[nM] 1.5,99%
same,Aurora A % Activity Set2,[1]; Log[nM] 1.5,94%
same,Aurora A % Activity Set3,[1]; Log[nM] 1.5,105%
same,Aurora A % Activity Set1,[1]; Log[nM] 2.0,105%
same,Aurora A % Activity Set2,[1]; Log[nM] 2.0,104%
same,Aurora A % Activity Set3,[1]; Log[nM] 2.0,107%
same,Aurora A % Activity Set1,[1]; Log[nM] 2.5,104%
same,Aurora A % Activity Set2,[1]; Log[nM] 2.5,105%
same,Aurora A % Activity Set3,[1]; Log[nM] 2.5,103%
same,Aurora A % Activity Set1,[1]; Log[nM] 3.0,78%
same,Aurora A % Activity Set2,[1]; Log[nM] 3.0,75%
same,Aurora A % Activity Set3,[1]; Log[nM] 3.0,77%
same,Aurora A % Activity Set1,[1]; Log[nM] 3.5,53%
same,Aurora A % Activity Set2,[1]; Log[nM] 3.5,57%
same,Aurora A % Activity Set3,[1]; Log[nM] 3.5,52%
same,Aurora A % Activity Set1,[1]; Log[nM] 4.0,17%
same,Aurora A % Activity Set2,[1]; Log[nM] 4.0,16%
same,Aurora A % Activity Set3,[1]; Log[nM] 4.0,16%
same,Aurora A % Activity Set1,[1]; Log[nM] 4.5,7%
same,Aurora A % Activity Set2,[1]; Log[nM] 4.5,6%
same,Aurora A % Activity Set3,[1]; Log[nM] 4.5,7%
same,Aurora A % Activity Set1,[1]; Log[nM] 5.0,6%
same,Aurora A % Activity Set2,[1]; Log[nM] 5.0,5%
same,Aurora A % Activity Set3,[1]; Log[nM] 5.0,5%
same,EGFR inhibition (in words),[2],single-digit nanomolar EGFR inhibition
same,IC50,[2]; [5],5.98 ± 0.61 nM
same,IC50,[2]; [6],5.9 nM
same,EGFR % Activity Set1,[2]; Log[nM] 0,57%
same,EGFR % Activity Set2,[2]; Log[nM] 0,58%
same,EGFR % Activity Set3,[2]; Log[nM] 0,56%
same,EGFR % Activity Set1,[2]; Log[nM] 1.0,38%
same,EGFR % Activity Set2,[2]; Log[nM] 1.0,37%
same,EGFR % Activity Set3,[2]; Log[nM] 1.0,40%
same,EGFR % Activity Set1,[2]; Log[nM] 1.5,13%
same,EGFR % Activity Set2,[2]; Log[nM] 1.5,16%
same,EGFR % Activity Set3,[2]; Log[nM] 1.5,16%
same,EGFR % Activity Set1,[2]; Log[nM] 2.0,7%
same,EGFR % Activity Set2,[2]; Log[nM] 2.0,7%
same,EGFR % Activity Set3,[2]; Log[nM] 2.0,8%
same,EGFR % Activity Set1,[2]; Log[nM] 2.5,2%
same,EGFR % Activity Set2,[2]; Log[nM] 2.5,4%
same,EGFR % Activity Set3,[2]; Log[nM] 2.5,3%
same,EGFR % Activity Set1,[2]; Log[nM] 3.0,1%
same,EGFR % Activity Set2,[2]; Log[nM] 3.0,1%
same,EGFR % Activity Set3,[2]; Log[nM] 3.0,2%
same,EGFR % Activity Set1,[2]; Log[nM] 3.5,0%
same,EGFR % Activity Set2,[2]; Log[nM] 3.5,1%
same,EGFR % Activity Set3,[2]; Log[nM] 3.5,0%
same,EGFR % Activity Set1,[2]; Log[nM] 4.0,0%
same,EGFR % Activity Set2,[2]; Log[nM] 4.0,0%
same,EGFR % Activity Set3,[2]; Log[nM] 4.0,0%
same,EGFR % Activity Set1,[2]; Log[nM] 4.5,0%
same,EGFR % Activity Set2,[2]; Log[nM] 4.5,0%
same,EGFR % Activity Set3,[2]; Log[nM] 4.5,0%
same,EGFR % Activity Set1,[2]; Log[nM] 5.0,0%
same,EGFR % Activity Set2,[2]; Log[nM] 5.0,0%
same,EGFR % Activity Set3,[2]; Log[nM] 5.0,0%
"Cc1ccc(Nc2ncnc3[nH]ccc23)cc1 [Compound 9, N^4-(4-methylphenyl)-7H-pyrrolo[2,3-d]pyrimidin-4-amine]",IC50,[1]; [3],5.45 ± 0.36 µM
same,IC50,[1]; [4],5.4 µM
same,Aurora A % Activity Set1,[1]; Log[nM] 0,101%
same,Aurora A % Activity Set2,[1]; Log[nM] 0,103%
same,Aurora A % Activity Set3,[1]; Log[nM] 0,105%
same,Aurora A % Activity Set1,[1]; Log[nM] 1.0,114%
same,Aurora A % Activity Set2,[1]; Log[nM] 1.0,103%
same,Aurora A % Activity Set3,[1]; Log[nM] 1.0,107%
same,Aurora A % Activity Set1,[1]; Log[nM] 1.5,111%
same,Aurora A % Activity Set2,[1]; Log[nM] 1.5,103%
same,Aurora A % Activity Set3,[1]; Log[nM] 1.5,109%
same,Aurora A % Activity Set1,[1]; Log[nM] 2.0,102%
same,Aurora A % Activity Set2,[1]; Log[nM] 2.0,107%
same,Aurora A % Activity Set3,[1]; Log[nM] 2.0,114%
same,Aurora A % Activity Set1,[1]; Log[nM] 2.5,99%
same,Aurora A % Activity Set2,[1]; Log[nM] 2.5,102%
same,Aurora A % Activity Set3,[1]; Log[nM] 2.5,110%
same,Aurora A % Activity Set1,[1]; Log[nM] 3.0,87%
same,Aurora A % Activity Set2,[1]; Log[nM] 3.0,90%
same,Aurora A % Activity Set3,[1]; Log[nM] 3.0,91%
same,Aurora A % Activity Set1,[1]; Log[nM] 3.5,63%
same,Aurora A % Activity Set2,[1]; Log[nM] 3.5,66%
same,Aurora A % Activity Set3,[1]; Log[nM] 3.5,61%
same,Aurora A % Activity Set1,[1]; Log[nM] 4.0,32%
same,Aurora A % Activity Set2,[1]; Log[nM] 4.0,29%
same,Aurora A % Activity Set3,[1]; Log[nM] 4.0,30%
same,Aurora A % Activity Set1,[1]; Log[nM] 4.5,16%
same,Aurora A % Activity Set2,[1]; Log[nM] 4.5,15%
same,Aurora A % Activity Set3,[1]; Log[nM] 4.5,13%
same,Aurora A % Activity Set1,[1]; Log[nM] 5.0,9%
same,Aurora A % Activity Set2,[1]; Log[nM] 5.0,9%
same,Aurora A % Activity Set3,[1]; Log[nM] 5.0,9%
same,IC50,[2]; [5],667 ± 142 nM
same,IC50,[2]; [6],693 nM
same,EGFR % Activity Set1,[2]; Log[nM] 0,103%
same,EGFR % Activity Set2,[2]; Log[nM] 0,98%
same,EGFR % Activity Set3,[2]; Log[nM] 0,105%
same,EGFR % Activity Set1,[2]; Log[nM] 1.0,112%
same,EGFR % Activity Set2,[2]; Log[nM] 1.0,109%
same,EGFR % Activity Set3,[2]; Log[nM] 1.0,103%
same,EGFR % Activity Set1,[2]; Log[nM] 1.5,113%
same,EGFR % Activity Set2,[2]; Log[nM] 1.5,108%
same,EGFR % Activity Set3,[2]; Log[nM] 1.5,95%
same,EGFR % Activity Set1,[2]; Log[nM] 2.0,95%
same,EGFR % Activity Set2,[2]; Log[nM] 2.0,88%
same,EGFR % Activity Set3,[2]; Log[nM] 2.0,81%
same,EGFR % Activity Set1,[2]; Log[nM] 2.5,74%
same,EGFR % Activity Set2,[2]; Log[nM] 2.5,63%
same,EGFR % Activity Set3,[2]; Log[nM] 2.5,67%
same,EGFR % Activity Set1,[2]; Log[nM] 3.0,36%
same,EGFR % Activity Set2,[2]; Log[nM] 3.0,35%
same,EGFR % Activity Set3,[2]; Log[nM] 3.0,43%
same,EGFR % Activity Set1,[2]; Log[nM] 3.5,18%
same,EGFR % Activity Set2,[2]; Log[nM] 3.5,16%
same,EGFR % Activity Set3,[2]; Log[nM] 3.5,23%
same,EGFR % Activity Set1,[2]; Log[nM] 4.0,8%
same,EGFR % Activity Set2,[2]; Log[nM] 4.0,7%
same,EGFR % Activity Set3,[2]; Log[nM] 4.0,10%
same,EGFR % Activity Set1,[2]; Log[nM] 4.5,3%
same,EGFR % Activity Set2,[2]; Log[nM] 4.5,4%
same,EGFR % Activity Set3,[2]; Log[nM] 4.5,3%
same,EGFR % Activity Set1,[2]; Log[nM] 5.0,1%
same,EGFR % Activity Set2,[2]; Log[nM] 5.0,1%
same,EGFR % Activity Set3,[2]; Log[nM] 5.0,2%
